ChEMBL document CHEMBL3885881, “DrugMatrix”

Organism: Rattus norvegicus
Experiment: DrugMatrix - Regimen: Daily Repeat
Type: toxicity, organism-based, Sprague-Dawley
Set-up: regimen Daily Repeat, gender Male, age 6-8 weeks
Settings: in vivo, po, route oral GAVAGE, vehicle .5 % CMC; for URIC ACID / ALANINE AMINOTRANSFERASE / ALBUMIN / ALKALINE PHOSPHATASE / ASPARTATE AMINOTRANSFERASE / BLOOD UREA NITROGEN / CARBON DIOXIDE / CHLORIDE / CHOLESTEROL / CREATINE PHOSPHOKINASE / CREATININE / GLUCOSE / LACTATE DEHYDROGENASE / LIPASE / PHOSPHORUS / POTASSIUM / SODIUM / TOTAL BILIRUBIN / TOTAL PROTEIN: tissue Plasma; for ABSOLUTE BASOPHIL / ABSOLUTE EOSINOPHIL / ABSOLUTE LYMPHOCYTE / ABSOLUTE MONOCYTE / ABSOLUTE SEGMENTED NEUTROPHIL / BASOPHIL / EOSINOPHIL / ERYTHROCYTE COUNT / HEMATOCRIT / HEMOGLOBIN / LEUKOCYTE COUNT / LYMPHOCYTE / MEAN CORPUSCULAR HEMOGLOBIN / MEAN CORPUSCULAR HEMOGLOBIN CONCENTRATION / MEAN CORPUSCULAR VOLUME / MONOCYTE / NEUTROPHIL / NUCLEATED RED BLOOD CELLS / PLATELET COUNT: tissue Blood
[1] = 250 mg/kg, 120 h, dose level High, time 5 day
[2] = […], 72 h, dose 0.25 mg/Kg, dose level Low, time 3 day
[3] = […], 120 h, dose 0.25 mg/Kg, dose level Low, time 5 day

Structure (SMILES): C#C[C@]1(O)CC[C@H]2[C@@H]3CCc4cc(OC)ccc4[C@H]3CC[C@@]21C [MESTRANOL]
- URIC ACID (250 mg/kg, 72 h, dose level High, time 3 day): 1.23 mg/dL
- ABSOLUTE BASOPHIL [1]: 0 CELLS/uL
- ABSOLUTE EOSINOPHIL [1]: 0 CELLS/uL
- ABSOLUTE LYMPHOCYTE [1]: 11929 CELLS/uL
- ABSOLUTE MONOCYTE [1]: 0 CELLS/uL
- ABSOLUTE SEGMENTED NEUTROPHIL [1]: 1137.67 CELLS/uL
- BASOPHIL [1]: 0%
- EOSINOPHIL [1]: 0%
- ERYTHROCYTE COUNT [1]: 6.07 x10E6/uL
- HEMATOCRIT [1]: 37.27%
- HEMOGLOBIN [1]: 14.37 G/DL
- LEUKOCYTE COUNT [1]: 13.07 x10E3/uL
- LYMPHOCYTE [1]: 91.33%
- MEAN CORPUSCULAR HEMOGLOBIN [1]: 23.67 pg
- MEAN CORPUSCULAR HEMOGLOBIN CONCENTRATION [1]: 38.53 G/DL
- MEAN CORPUSCULAR VOLUME [1]: 61.37 fL
- MONOCYTE [1]: 0%
- NEUTROPHIL [1]: 8.67%
- NUCLEATED RED BLOOD CELLS [1]: 0 /100WBC
- PLATELET COUNT [1]: 1600 x10E3/uL
- ALANINE AMINOTRANSFERASE [1]: 72.67 u/L
- ALBUMIN [1]: 4.13 G/DL
- ALKALINE PHOSPHATASE [1]: 667.33 u/L
- ASPARTATE AMINOTRANSFERASE [1]: 77.67 u/L
- BLOOD UREA NITROGEN [1]: 14.67 mg/dL
- CARBON DIOXIDE [1]: 23.67 mmol/L
- CHLORIDE [1]: 102 MEQ/L
- CHOLESTEROL [1]: 4.67 mg/dL
- CREATINE PHOSPHOKINASE [1]: 223.67 u/L
- CREATININE [1]: 0.14 mg/dL
- GLUCOSE [1]: 117 mg/dL
- LACTATE DEHYDROGENASE [1]: 394.67 u/L
- LIPASE [1]: 7.33 u/L
- PHOSPHORUS [1]: 10.63 mg/dL
- POTASSIUM [1]: 6.65 MEQ/L
- SODIUM [1]: 145.1 MEQ/L
- TOTAL BILIRUBIN [1]: 0.13 mg/dL
- URIC ACID [1]: 1.63 mg/dL
- ABSOLUTE BASOPHIL [2]: 0 CELLS/uL
- ABSOLUTE EOSINOPHIL [2]: 68.33 CELLS/uL
- ABSOLUTE LYMPHOCYTE [2]: 15182.67 CELLS/uL
- ABSOLUTE MONOCYTE [2]: 0 CELLS/uL
- ABSOLUTE SEGMENTED NEUTROPHIL [2]: 1349 CELLS/uL
- BASOPHIL [2]: 0%
- EOSINOPHIL [2]: 0.33%
- ERYTHROCYTE COUNT [2]: 5.73 x10E6/uL
- HEMATOCRIT [2]: 36.73%
- HEMOGLOBIN [2]: 14.03 G/DL
- LEUKOCYTE COUNT [2]: 16.6 x10E3/uL
- LYMPHOCYTE [2]: 91.67%
- MEAN CORPUSCULAR HEMOGLOBIN [2]: 24.5 pg
- MEAN CORPUSCULAR HEMOGLOBIN CONCENTRATION [2]: 38.17 G/DL
- MEAN CORPUSCULAR VOLUME [2]: 64.17 fL
- MONOCYTE [2]: 0%
- NEUTROPHIL [2]: 8%
- NUCLEATED RED BLOOD CELLS [2]: 0 /100WBC
- PLATELET COUNT [2]: 1226 x10E3/uL
- ALANINE AMINOTRANSFERASE [2]: 51.33 u/L
- ALBUMIN [2]: 4.37 G/DL
- ALKALINE PHOSPHATASE [2]: 522.67 u/L
- ASPARTATE AMINOTRANSFERASE [2]: 83.67 u/L
- BLOOD UREA NITROGEN [2]: 12.67 mg/dL
- CARBON DIOXIDE [2]: 28 mmol/L
- CHLORIDE [2]: 101.67 MEQ/L
- CHOLESTEROL [2]: 36 mg/dL
- CREATINE PHOSPHOKINASE [2]: 348.33 u/L
- CREATININE [2]: 0.27 mg/dL
- GLUCOSE [2]: 135.67 mg/dL
- LACTATE DEHYDROGENASE [2]: 453.33 u/L
- LIPASE [2]: 7.67 u/L
- PHOSPHORUS [2]: 11.2 mg/dL
- POTASSIUM [2]: 6.61 MEQ/L
- SODIUM [2]: 145.07 MEQ/L
- TOTAL BILIRUBIN [2]: 0.23 mg/dL
- TOTAL PROTEIN [2]: 6.23 G/DL
- URIC ACID [2]: 1.33 mg/dL
- ABSOLUTE BASOPHIL [3]: 0 CELLS/uL
- ABSOLUTE EOSINOPHIL [3]: 139.33 CELLS/uL
- ABSOLUTE LYMPHOCYTE [3]: 14510.33 CELLS/uL
- ABSOLUTE MONOCYTE [3]: 98 CELLS/uL
- ABSOLUTE SEGMENTED NEUTROPHIL [3]: 652.33 CELLS/uL
- BASOPHIL [3]: 0%
- EOSINOPHIL [3]: 1%
- ERYTHROCYTE COUNT [3]: 5.62 x10E6/uL
- HEMATOCRIT [3]: 35.57%
- HEMOGLOBIN [3]: 14.03 G/DL
- LEUKOCYTE COUNT [3]: 15.4 x10E3/uL
- LYMPHOCYTE [3]: 94.33%
- MEAN CORPUSCULAR HEMOGLOBIN [3]: 25.13 pg
- MEAN CORPUSCULAR HEMOGLOBIN CONCENTRATION [3]: 39.5 G/DL
- MEAN CORPUSCULAR VOLUME [3]: 63.6 fL
- MONOCYTE [3]: 0.67%
- NEUTROPHIL [3]: 4%
- NUCLEATED RED BLOOD CELLS [3]: 0 /100WBC
- PLATELET COUNT [3]: 1110.33 x10E3/uL
- ALANINE AMINOTRANSFERASE [3]: 49.33 u/L
- ALBUMIN [3]: 3.97 G/DL
- ALKALINE PHOSPHATASE [3]: 553.33 u/L
- ASPARTATE AMINOTRANSFERASE [3]: 70.67 u/L
- BLOOD UREA NITROGEN [3]: 19.33 mg/dL
- CARBON DIOXIDE [3]: 26.67 mmol/L
- CHLORIDE [3]: 102.67 MEQ/L
- CHOLESTEROL [3]: 31.33 mg/dL
- CREATINE PHOSPHOKINASE [3]: 297.67 u/L
- CREATININE [3]: 0.26 mg/dL
- GLUCOSE [3]: 141.33 mg/dL
- LACTATE DEHYDROGENASE [3]: 123.67 u/L
- LIPASE [3]: 7.33 u/L
- PHOSPHORUS [3]: 11.23 mg/dL
- POTASSIUM [3]: 6.54 MEQ/L
- SODIUM [3]: 144.33 MEQ/L
- TOTAL BILIRUBIN [3]: 0.27 mg/dL
- TOTAL PROTEIN [3]: 6 G/DL
- URIC ACID [3]: 1.13 mg/dL
